We go through eleven compounds from ChEMBL document CHEMBL3085649, “2'-Deoxyuridine 5'-monophosphate substrate displacement in thymidylate synthase through 6-hydroxy-2H-naphtho[1,8-bc]furan-2-one derivatives” (J Med Chem, 2013).

Assay [1] concerns the target T1, Thymidylate synthase (Lactobacillus casei, UniProt P00469).
T1 sequence (P00469 whole entry): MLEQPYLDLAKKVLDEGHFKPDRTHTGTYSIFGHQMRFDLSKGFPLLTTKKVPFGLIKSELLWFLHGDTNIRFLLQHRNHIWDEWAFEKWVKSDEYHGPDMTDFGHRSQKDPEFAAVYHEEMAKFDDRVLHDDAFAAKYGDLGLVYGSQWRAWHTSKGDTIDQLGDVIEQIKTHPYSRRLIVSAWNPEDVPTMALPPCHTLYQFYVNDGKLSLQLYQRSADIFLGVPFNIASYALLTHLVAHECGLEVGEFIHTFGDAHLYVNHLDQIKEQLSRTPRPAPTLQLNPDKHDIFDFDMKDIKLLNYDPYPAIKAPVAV
The assay can be described thus: Inhibition of Lactobacillus casei thymidylate synthase using MTHF and dUMP as substrates. The arrangement: species or system Lacticaseibacillus casei.

Assay [2] concerns the target T2, Thymidylate synthase (Pneumocystis carinii) (UniProt P13100).
T2 sequence (whole entry): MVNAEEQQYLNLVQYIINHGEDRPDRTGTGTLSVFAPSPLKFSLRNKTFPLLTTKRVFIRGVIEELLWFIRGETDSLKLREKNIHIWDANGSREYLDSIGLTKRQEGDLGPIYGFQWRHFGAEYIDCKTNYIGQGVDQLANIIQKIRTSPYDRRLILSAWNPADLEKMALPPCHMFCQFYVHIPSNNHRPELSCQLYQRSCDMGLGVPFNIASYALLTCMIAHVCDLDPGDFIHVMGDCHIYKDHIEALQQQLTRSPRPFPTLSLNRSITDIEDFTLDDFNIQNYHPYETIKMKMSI
The assay can be described thus: Inhibition of Pneumocystis carinii thymidylate synthase using MTHF and dUMP as substrates at 100 uM.

In assay [3] the target is Thymidylate synthase (Homo sapiens) (UniProt P04818). The assay can be described thus: Inhibition of human thymidylate synthase using MTHF and dUMP as substrates at 100 uM.
Sequence of Thymidylate synthase (Homo sapiens) (P04818 2-313 limits assumed): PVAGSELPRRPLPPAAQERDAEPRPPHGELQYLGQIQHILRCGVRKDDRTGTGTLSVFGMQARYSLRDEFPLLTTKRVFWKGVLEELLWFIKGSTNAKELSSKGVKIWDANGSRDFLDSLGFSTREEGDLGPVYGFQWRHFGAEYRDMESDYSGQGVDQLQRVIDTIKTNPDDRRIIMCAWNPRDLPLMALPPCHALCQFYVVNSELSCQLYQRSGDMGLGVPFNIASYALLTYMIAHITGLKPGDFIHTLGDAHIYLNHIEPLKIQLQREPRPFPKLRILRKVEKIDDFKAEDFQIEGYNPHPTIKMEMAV
A further assay deals with Escherichia coli. Kind of assay: Inhibition of Escherichia coli thymidylate synthase using MTHF and dUMP as substrates at 100 uM.
Assay [4] can be described thus: Inhibition of Enterococcus fecalis thymidylate synthase using MTHF and dUMP as substrates. The arrangement: species or system Enterococcus faecalis.
A short description of assay [5]: Inhibition of Escherichia coli thymidylate synthase using MTHF and dUMP as substrates.
Assay [6] deals with T3, Thymidylate synthase (Pneumocystis carinii, UniProt P13100).
T3 sequence (P13100 whole entry): T2 sequence (whole entry)
Kind of assay: Inhibition of Pneumocystis carinii thymidylate synthase using MTHF and dUMP as substrates.

A further assay relates to Enterococcus faecalis. Kind of assay: Inhibition of Enterococcus fecalis thymidylate synthase using MTHF and dUMP as substrates at 100 uM.
For assay [7], the target named is T4, Thymidylate synthase (Lactobacillus casei) (UniProt P00469).
T4 sequence (whole entry): T1 sequence (P00469 whole entry)
The assay can be described thus: Inhibition of Lactobacillus casei thymidylate synthase using MTHF and dUMP as substrates at 100 uM. Conditions: Lacticaseibacillus casei.

pKi: −log10 of the molar value. Calls of active or inactive are those of the source. The calls are words filed in the database; no cut-off is given here.

Usually pKi stands for −log10 of the Ki, conventionally taken in molar units. With `O=C(Oc1ccc2c3c(cccc13)C(=O)O2)c1cccc(C(F)(F)F)c1`, the pKi on Thymidylate synthase [1] is 4.48; in [4] it was 4.39. Moreover, the inhibition entry (in [2]; in assay [3]; in the assay on Escherichia coli) was “inactive” in each case.

With `O=C(Oc1ccc2c3c(cccc13)C(=O)O2)c1ccc([N+](=O)[O-])cc1`, the pKi is 5.92 at Thymidylate synthase [1], 5.22 in [5], 5.46 at Thymidylate synthase [6] and 4.57 in assay [4].

Turning to `O=C(Oc1ccc2c3c(cccc13)C(=O)O2)c1ccco1`, the values for the pKi (at Thymidylate synthase [1]; on Thymidylate synthase [6]; in [4]) were 4.89, 4.82 and 4.70, respectively. Also, the inhibition result in the assay on Escherichia coli was “inactive”.

Regarding `CC(C)COC(=O)Oc1ccc2c3c(cccc13)C(=O)O2`, the inhibition result (in the assay with Enterococcus faecalis; in assay [2]; in [3]; with Escherichia coli) was “inactive” throughout. Besides, at Thymidylate synthase [1], the negative logarithm of the Ki (pKi) was 5.05.

Take `N#Cc1cccc(C(=O)Oc2ccc3c4c(cccc24)C(=O)O3)c1`: the pKi at Thymidylate synthase [1] is 6.41; in assay [5], 5.40; at Thymidylate synthase [6], 6.51; in assay [4] it was 4.85.

On to `C/C=C/C(=O)Oc1ccc2c3c(cccc13)C(=O)O2`, for which the inhibition result (with Enterococcus faecalis; in assay [3]; with Escherichia coli) was “inactive” in each case. The figures for the pKi at Thymidylate synthase [1] and on Thymidylate synthase [6] were 5.22 and 5.00, respectively.

As to `C=CC(=O)Oc1ccc2c3c(cccc13)C(=O)O2`, the pKi at Thymidylate synthase [1] was 5.00; on Thymidylate synthase [6] it was 4.72; in assay [4] it was 4.39.

`O=C(Oc1ccc2c3c(cccc13)C(=O)O2)c1ccc(SC(F)(F)F)cc1`: the inhibition result (with Enterococcus faecalis; in assay [2]; in [3]; with Escherichia coli; in assay [7]) was “inactive” throughout.

Consider `O=C(Oc1ccc2c3c(cccc13)C(=O)O2)c1ccc2c(c1)OCO2`, for which the inhibition result (with Enterococcus faecalis; in assay [2]; in assay [3]; with Escherichia coli; in [7]) was “inactive” throughout.

In the case of `CCOC(=O)Oc1ccc2c3c(cccc13)C(=O)O2`, the pKi at Thymidylate synthase [1] is 5.00; in assay [5], 4.17; at Thymidylate synthase [6], 4.47; in [4], 4.43.

Regarding `O=C1Oc2ccc(OC(=O)C3CCCCC3)c3cccc1c23`, the inhibition result (in the assay on Enterococcus faecalis; in assay [3]) was “inactive” throughout. Besides, the pKi at Thymidylate synthase [1] is 4.31; in [5] it was 4.18; at Thymidylate synthase [6] it was 4.74.
